Laboratory results: patent publication US10508109B2 (priority 2015, dated 2019)
Where two headings read alike, the source gives them in different places.

Legend:
A549 = assay: Cell-based assay, anti-proliferative activity (Cell Counting Kit-8, 72 hours); conditions: Homo sapiens, read-out: IC50 (μM) A549
How it was run: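 After compound exposure of cells in 96-well plates, growth was measured colorimetrically and converted into IC50 values.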

SUV39H2 = SUV39H2 (Homo sapiens (Human), UniProt Q9H5I1); conditions: read-out: IC50 (μM) Suv 39H2 assay; enzyme assay
PC14 = assay: Cell-based assay, anti-proliferative activity (Cell Counting Kit-8, 72 hours); conditions: Homo sapiens, read-out: IC50 (μM) PC14
How it was run: (§1)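 CCK-8 viability read 72 h after compound exposure over an 8-point series from 1.5625 to 100 micro-M plus zero. Seeding density 2,000–3,000 cells/well; IC50 from the dilution series.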

HFL1 = assay: as above; conditions: Homo sapiens, read-out: IC50 (μM) HFL1
How it was run: as §1

HCT-116 = assay: as above; conditions: Homo sapiens, read-out: IC50 (μM) HCT-116
How it was run: as §1

CCD-18Co = assay: as above; conditions: Homo sapiens, read-out: IC50 (μM) CCD-18Co
How it was run: as §1

[1] = A549 cells, Cell Counting Kit-8, 72 hours
[2] = PC-14, PC14 cells, Cell Counting Kit-8, 72 hours
[3] = HFL1 cells, Cell Counting Kit-8, 72 hours
[4] = HCT-116 cells, Cell Counting Kit-8, 72 hours
[5] = CCD-18Co cells, Cell Counting Kit-8, 72 hours
[6] = A549 cells, 72 hours, Cell Counting Kit-8
[7] = PC-14, PC14 cells, 72 hours, Cell Counting Kit-8
[8] = HFL1 cells, 72 hours, Cell Counting Kit-8
[9] = HCT-116 cells, 72 hours, Cell Counting Kit-8
[10] = CCD-18Co cells, 72 hours, Cell Counting Kit-8

SUV39H2, sequence (Q9H5I1 whole entry): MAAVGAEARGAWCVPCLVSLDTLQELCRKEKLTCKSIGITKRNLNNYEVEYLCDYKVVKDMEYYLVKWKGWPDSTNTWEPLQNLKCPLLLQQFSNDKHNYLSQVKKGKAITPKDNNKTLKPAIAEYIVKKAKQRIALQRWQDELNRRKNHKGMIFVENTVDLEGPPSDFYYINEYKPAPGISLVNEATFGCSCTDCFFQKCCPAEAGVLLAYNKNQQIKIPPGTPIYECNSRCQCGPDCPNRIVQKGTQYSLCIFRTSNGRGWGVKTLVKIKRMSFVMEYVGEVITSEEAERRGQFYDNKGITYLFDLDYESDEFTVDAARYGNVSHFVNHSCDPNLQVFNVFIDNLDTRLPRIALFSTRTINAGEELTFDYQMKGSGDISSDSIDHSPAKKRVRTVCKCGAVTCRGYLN

| SMILES | IC50 (A549; [1]) [µM] | IC50 (SUV39H2) [µM] | IC50 (PC14; [2]) [µM] | IC50 (HFL1; [3]) [µM] | IC50 (HCT-116; [4]) [µM] | IC50 (CCD-18Co; [5]) [µM] | IC50 (A549; A549, 72 h) [µM] | IC50 (PC14; PC-14, 72 h) [µM] | IC50 (HFL1; HFL1, 72 h) [µM] | IC50 (HCT-116; HCT-116, 72 h) [µM] | IC50 (CCD-18Co; CCD-18Co, 72 h) [µM] | IC50 (A549; [6]) [µM] | IC50 (PC14; [7]) [µM] | IC50 (HFL1; [8]) [µM] | IC50 (HCT-116; [9]) [µM] | IC50 (CCD-18Co; [10]) [µM] |
| --- | --- | --- | --- | --- | --- | --- | --- | --- | --- | --- | --- | --- | --- | --- | --- | --- |
| CCS(=O)(=O)N1CCN(c2ccn3cc(-c4cc(Cl)c(OC)cc4OCCCN(C)C)nc3c2)CC1 [Example 199, 3-(4-chloro-2-(7-(4-(ethylsulfonyl)piperazin-1-yl)imidazo[1,2-a]pyridin-2-yl)-5-methoxyphenoxy)-N,N-dimethylpropan-1-amine] | 5.2 | 0.0168 | 3 | 4.8 | 6.4 | 3.9 | – | – | – | – | – | – | – | – | – | – |
| COc1cc(OC)c(-c2cn3ccc(N4CCCN(S(=O)(=O)N(C)C)CC4)cc3n2)cc1Cl [Example 200, 4-[2-(5-chloro-2,4-dimethoxyphenyl)imidazo[1,2-a]pyridin-7-yl]-N,N-dimethyl-1,4-diazepane-1-sulfonamide] | 1.6 | 0.00674 | 1.3 | 1.7 | 2 | 3 | – | – | – | – | – | – | – | – | – | – |
| COc1cc(OC)c(-c2cn3ccc(N4CCCN(S(C)(=O)=O)CC4)cc3n2)cc1Cl [Example 201, 2-(5-chloro-2,4-dimethoxyphenyl)-7-[4-(methylsulfonyl)-1,4-diazepan-1-yl]imidazo[1,2-a]pyridine] | 2.2 | 0.0064 | 1.9 | 3 | 2.7 | 3.2 | – | – | – | – | – | – | – | – | – | – |
| CCOP(=O)(CCN1CCN(c2ccn3cc(-c4cc(Cl)c(OC)cc4OC)nc3c2)CC1)OCC [Example 202, diethyl (2-(4-(2-(5-chloro-2,4-dimethoxyphenyl)imidazo[1,2-a]pyridin-7-yl)piperazin-1-yl)ethyl)phosphonate] | 10 | 0.0064 | 8 | 7.2 | 10 | 5.6 | – | – | – | – | – | – | – | – | – | – |
| COc1cc(OC)c(-c2cn3ccc(N4CCN(P(=O)(OC)OC)CC4)cc3n2)cc1Cl [Example 203, dimethyl {4-[2-(5-chloro-2,4-dimethoxyphenyl)imidazo[1,2-a]pyridin-7-yl]piperazin-1-yl}phosphonate] | – | 0.00177 | – | – | – | – | 3.9 | 1.8 | 4 | 5.1 | 6 | – | – | – | – | – |
| COc1cc(OC)c(-c2cn3ccc(N4CCN(S(=O)(=O)C5CCCC5)CC4)nc3n2)cc1Cl [Example 204, 2-(5-chloro-2,4-dimethoxyphenyl)-7-[4-(cyclopentylsulfonyl)-piperazin-1-yl]imidazo[1,2-a]pyrimidine] | 0.75 | 0.0448 | 0.6 | 1.7 | 1 | 4.5 | – | – | – | – | – | – | – | – | – | – |
| COc1cc(OC)c(-c2cn3ccc(N4CCN(S(=O)(=O)C(C)C)CC4)nc3n2)cc1Cl [Example 205, 2-(5-chloro-2,4-dimethoxyphenyl)-7-[4-(isopropylsulfonyl)piperazin-1-yl]imidazo[1,2-a]pyrimidine] | 1.2 | 0.0291 | 0.62 | 2 | 1.9 | 3.1 | – | – | – | – | – | – | – | – | – | – |
| CCS(=O)(=O)N1CCCN(c2ccn3cc(-c4cc(Cl)c(OC)cc4OC)nc3c2)CC1 [Example 206, 2-(5-chloro-2,4-dimethoxyphenyl)-7-[4-(ethylsulfonyl)-1,4-diazepan-1-yl]imidazo[1,2-a]pyridine] | 2.6 | 0.00561 | 1.6 | 2.3 | 3.3 | 2.9 | – | – | – | – | – | – | – | – | – | – |
| COc1cc(OC)c(-c2cn3ccc(N4CCCN(P(=O)(OC)OC)CC4)cc3n2)cc1Cl [Example 207, dimethyl (4-(2-(5-chloro-2,4-dimethoxyphenyl)imidazo[1,2-a]pyridin-7-yl)-1,4-diazepan-1-yl)phosphonate] | – | 0.0113 | – | – | – | – | 10 | 10 | 10 | 10 | 10 | – | – | – | – | – |
| COc1cc(OC)c(-c2cn3cc(NCCN)c(N4CCOCC4)c(F)c3n2)cc1Cl [Example 208, N^1-(2-(5-chloro-2,4-dimethoxyphenyl)-8-fluoro-7-morpholinoimidazo-[1,2-a]pyridine-6-yl)ethane-1,2-diamine] | 10 | 0.0291 | 8.4 | 8.4 | 10 | 5.9 | – | – | – | – | – | – | – | – | – | – |
| COc1cc(OCCCN(C)C)c(-c2cn3ccc(N4CCCNCC4)cc3n2)cc1Cl [Example 209, 3-{2-[7-(1,4-diazepan-1-yl)imidazo[1,2-a]pyridin-2-yl]-4-chloro-5-methoxyphenoxy}-N,N-dimethylpropan-1-amine] | 3 | 0.00207 | 2.7 | 1.2 | 3.7 | 3.2 | – | – | – | – | – | – | – | – | – | – |
| CCOP(=O)(CCN1CCCN(c2ccn3cc(-c4cc(Cl)c(OC)cc4OC)nc3c2)CC1)OCC [Example 210, diethyl (2-(4-(2-(5-chloro-2,4-dimethoxyphenyl)imidazo[1,2-a]pyridin-7-yl)-1,4-diazepan-1-yl)ethyl)phosphonate] | 10 | 0.0029 | 4.5 | 7.2 | 10 | 5.5 | – | – | – | – | – | – | – | – | – | – |
| COc1cc(OCCCN(C)C)c(-c2cn3ccc(N4CCCN(C(=O)OC(C)(C)C)CC4)cc3n2)cc1Cl [Example 211, tert-butyl 4-(2-{5-chloro-2-[3-(dimethylamino)propoxy]-4-methoxyphenyl}imidazo[1,2-a]pyridin-7-yl)-1,4-diazepane-1-carboxylate] | 2.9 | 0.0563 | 0.8 | 1.4 | 2.4 | 1.4 | – | – | – | – | – | – | – | – | – | – |
| COc1cc(OCCCN(C)C)c(-c2cn3ccc(N4CCCN(S(=O)(=O)C5CC5)CC4)cc3n2)cc1Cl [Example 212, 3-(4-chloro-2-(7-(4-(cyclopropylsulfonyl)-1,4-diazepan-1-yl)imidazo[1,2-a]-pyridin-2-yl)-5-methoxyphenoxy)-N,N-dimethylpropan-1-amine] | 8.1 | 0.0161 | 4.2 | 5.8 | 8.6 | 6 | – | – | – | – | – | – | – | – | – | – |
| COc1cc(OCCCN(C)C)c(-c2cn3ccc(N4CCCN(S(C)(=O)=O)CC4)cc3n2)cc1Cl [Example 213, 3-(4-chloro-2-(7-(4-(methylsulfonyl)-1,4-diazepan-1-yl)imidazo-[1,2-a]pyridin-2-yl)-5-methoxyphenoxy)-N,N-dimethylpropan-1-amine] | – | 0.0145 | – | – | – | – | – | – | – | – | – | 10 | 9.1 | 7.4 | 5.5 | 10 |
| CCOP(=O)(CCN1CCCN(c2ccn3cc(-c4cc(Cl)c(OC)cc4OCCCN(C)C)nc3c2)CC1)OCC [Example 214, diethyl (2-(4-(2-(5-chloro-2-(3-(dimethylamino)propoxy)-4-methoxyphenyl)-imidazo[1,2-a]pyridin-7-yl)-1,4-diazepan-1-yl)ethyl)phosphonate] | – | 0.0106 | – | – | – | – | – | – | – | – | – | 10 | 10 | 10 | 10 | 10 |
| CCS(=O)(=O)N1CCCN(c2ccn3cc(-c4cc(Cl)c(OC)cc4OCCCN(C)C)nc3c2)CC1 [Example 215, 3-(4-chloro-2-(7-(4-(ethylsulfonyl)-1,4-diazepan-1-yl)imidazo[1,2-a]pyridin-2-yl)-5-methoxyphenoxy)-N,N-dimethylpropan-1-amine] | – | 0.0135 | – | – | – | – | – | – | – | – | – | 10 | 6.5 | 6.4 | 10 | 7.4 |
| COc1cc(OCCCN(C)C)c(-c2cn3ccc(N4CCCN(S(=O)(=O)N(C)C)CC4)cc3n2)cc1Cl [Example 216, 4-(2-{5-chloro-2-[3-(dimethylamino)propoxy]-4-methoxyphenyl}-imidazo[1,2-a]pyridin-7-yl)-N,N-dimethyl-1,4-diazepane-1-sulfonamide] | – | 0.0194 | – | – | – | – | – | – | – | – | – | 1.9 | 1.6 | 1.5 | 3.3 | 2.7 |
| COc1cc(OC)c(-c2cn3cc(Br)c(N4CCNCC4)cc3n2)cc1Cl [Example 217, 6-bromo-2-(5-chloro-2,4-dimethoxyphenyl)-7-(piperazin-1-yl)-imidazo[1,2-a]pyridine] | – | 0.0416 | – | – | – | – | – | – | – | – | – | 7.2 | 3.4 | 4.9 | 5.5 | 4.3 |
| COc1cc(OC)c(-c2cn3ccc(N4CCN(P(=O)(OC)OC)CC4)nc3n2)cc1Cl [Example 218, dimethyl (4-(2-(5-chloro-2,4-dimethoxyphenyl)imidazo[1,2-a]pyrimidin-7-yl)piperazin-1-yl)phosphonate] | – | 0.0111 | – | – | – | – | 6.5 | 3.4 | 10 | 5.6 | 10 | – | – | – | – | – |
